The results in this text go back to paper PMC9352670 (2022).

One may read the Kd as the constant that tells how readily two partners part at equilibrium.

The test system of test [1] is Dm-HS-1 CCG ∆ s.c. (DNA, aptamer, no side-chain at 40 (codon 8 CCG); others as HFNAP: fluorophenyl at 19; allylamine at 22, 25, 37; alcohol at 28, 34, 49; phenol at 31, 46; cyclopropyl at 43, 58; imidazole at 52, 55, 61) GAAAGCAGGACTGGAGATCGATTCTGGTGCTGTTGATCTCCGCCATTGTGCTCCTACCCTTCACAGACCGAACTAGAGCTT
Briefly: microscale thermophoresis. The note with it: 5 mM KCl, 1 mM MgCl2, 1 mM CaCl2 added to HBS-P+; HBS-P+ buffer, 25 °C.

Test [2] concerns Dm-HS-1 CGA ∆ s.c. (DNA, aptamer, as Dm-HS-1 but no side-chain at 19: allylamine at 22,25,37; alcohol at 28,34,49; phenol at 31,46; cyclopentyl at 40; cyclopropyl at 43,58; imidazole at 52,55,61) GAAAGCAGGACTGGAGATCGATTCTGGTGCTGTTGATCTCCGCCATTGTGCTCCTACCCTTCACAGACCGAACTAGAGCTT
Briefly: microscale thermophoresis. The note with it: 5 mM KCl, 1 mM MgCl2, 1 mM CaCl2 added; HBS-P+ buffer, 25 °C.

Test [3] deals with Dm-HS-6 ∆ s.c. (DNA, aptamer, none (no side-chains)) GAAAGCAGGACTGGAGATTGGTAGTAACTGCTGTCCTGCTAATCATGCCGTTCACGCTGACCTCAGACCGAACTAGAGCTT
Description: microscale thermophoresis. The note with it: 5 mM KCl, 1 mM MgCl2, 1 mM CaCl2 added; HBS-P+ buffer, 25 °C. Background: Microscale thermophoresis detects binding through changes in fluorescence in a small temperature gradient.

In test [4] the test system is Dm-HS-5 ∆ s.c. (DNA, aptamer, none (no side-chains)) GAAAGCAGGACTGGAGATCGATTCTGGTGCTGTTGATCTCCGCCATTGTGCTCCTGCCCTTCACAGACCGAACTAGAGCTT
Description: microscale thermophoresis. The note with it: 5 mM KCl, 1 mM MgCl2, 1 mM CaCl2 added; HBS-P+ buffer, 25 °C.

Test [5] deals with Dm-HS-9 (DNA, aptamer, HFNAP: side-chain on 5' nucleobase of each coding trinucleotide, positions 19,22,25,...,61 (codon key Figure 1B)) GAAAGCAGGACTGGAGATCGATTATTGTGATTTTGATCTCCCCCATATCCCCTTCCCTACTCGCAGACCGAACTAGAGCTT
Description: microscale thermophoresis. The note with it: 5 mM KCl, 1 mM MgCl2, 1 mM CaCl2 added; HBS-P+ buffer, 25 °C.

Test [6] relates to Dm-CCS-1 (DNA, aptamer, HFNAP: side-chain on 5' nucleobase of each coding trinucleotide, positions 19,22,25,...,61 (codon key Figure 1B)) GAAAGCAGGACTGGAGATCCTTAATGGCAGCTCCAGCCCTAACCCTGCTGCTGCCTCTGCTGTCAGACCGAACTAGAGCTT
Briefly: microscale thermophoresis. The settings on record: 5 mM KCl, 1 mM MgCl2, 1 mM CaCl2 added; HBS-P+ buffer, 25 °C.

Test [7] has as its system Dm-HS-1 TCT ∆ s.c. (DNA, aptamer, no side-chain at 37 (codon 7 TCT); others as HFNAP: fluorophenyl at 19; allylamine at 22, 25; alcohol at 28, 34, 49; phenol at 31, 46; cyclopentyl at 40; cyclopropyl at 43, 58; imidazole at 52, 55, 61) GAAAGCAGGACTGGAGATCGATTCTGGTGCTGTTGATCTCCGCCATTGTGCTCCTACCCTTCACAGACCGAACTAGAGCTT
Briefly: microscale thermophoresis. The settings on record: 5 mM KCl, 1 mM MgCl2, 1 mM CaCl2 added to HBS-P+; HBS-P+ buffer, 25 °C.

Test [8] has as its system Dm-HS-1 (DNA, aptamer, HFNAP nucleobase side-chains: fluorophenyl at 19; allylamine at 22,25,37; alcohol at 28,34,49; phenol at 31,46; cyclopentyl at 40; cyclopropyl at 43,58; imidazole at 52,55,61) GAAAGCAGGACTGGAGATCGATTCTGGTGCTGTTGATCTCCGCCATTGTGCTCCTACCCTTCACAGACCGAACTAGAGCTT
Description: microscale thermophoresis. The settings on record: 5 mM KCl, 1 mM MgCl2, 1 mM CaCl2 added; HBS-P+ buffer, 25 °C.

Test [9] relates to Dm-HS-3 (DNA, aptamer, HFNAP: side-chain on 5' nucleobase of each coding trinucleotide, positions 19,22,25,...,61 (codon key Figure 1B)) GAAAGCAGGACTGGAGATCGATTATTGTGATTTTGATCTCCTCCATATCCCCTTCCCTACTCGCAGACCGAACTAGAGCTT
Briefly: microscale thermophoresis. The note with it: 5 mM KCl, 1 mM MgCl2, 1 mM CaCl2 added; HBS-P+ buffer, 25 °C.

For test [10], the system named is Dm-HS-7 ∆ s.c. (DNA, aptamer, none (no side-chains)) GAAAGCAGGACTGGAGATCGATTGCAGTTACGTTGCTAGTCCCCTTGATCACCTCCGTCACCTCAGACCGAACTAGAGCTT
Description: microscale thermophoresis. The settings on record: 5 mM KCl, 1 mM MgCl2, 1 mM CaCl2 added; HBS-P+ buffer, 25 °C.

Test [11] relates to Dm-HS-1 TGT ∆ s.c. (DNA, aptamer, as Dm-HS-1 but no side-chain at 31: fluorophenyl at 19; allylamine at 22,25,37; alcohol at 28,34,49; phenol at 46; cyclopentyl at 40; cyclopropyl at 43,58; imidazole at 52,55,61) GAAAGCAGGACTGGAGATCGATTCTGGTGCTGTTGATCTCCGCCATTGTGCTCCTACCCTTCACAGACCGAACTAGAGCTT
Briefly: microscale thermophoresis. The note with it: 5 mM KCl, 1 mM MgCl2, 1 mM CaCl2 added; HBS-P+ buffer, 25 °C.

For test [12], the system named is Dm-HS-1 (DNA, aptamer, HFNAP, side-chains on nucleobases: fluorophenyl at 19; allylamine at 22, 25, 37; alcohol at 28, 34, 49; phenol at 31, 46; cyclopentyl at 40; cyclopropyl at 43, 58; imidazole at 52, 55, 61) GAAAGCAGGACTGGAGATCGATTCTGGTGCTGTTGATCTCCGCCATTGTGCTCCTACCCTTCACAGACCGAACTAGAGCTT
Description: gel filtration, radiolabelled ligand. The note with it: 140 mM NaCl, 5 mM KCl, 1 mM MgCl2, 1 mM CaCl2; 20 mM Tris-HCl pH 7.4, 0.05% Tween 20, 25 °C; [3H]-daunomycin mixed with unlabelled; control sequence subtracted. A general note: Size exclusion chromatography separates by hydrodynamic size, large species first.

For test [13], the system named is Dm-HS-2 ∆ s.c. (DNA, aptamer, none (no side-chains)) GAAAGCAGGACTGGAGATCTATGGTCGCATCGTTGACCCTTGTCCTGCCCCTGTCTCTCTCAACAGACCGAACTAGAGCTT
Briefly: microscale thermophoresis. The note with it: 5 mM KCl, 1 mM MgCl2, 1 mM CaCl2 added; HBS-P+ buffer, 25 °C.

For test [14], the system named is Dm-HS-9 ∆ s.c. (DNA, aptamer, none (no side-chains)) GAAAGCAGGACTGGAGATCGATTATTGTGATTTTGATCTCCCCCATATCCCCTTCCCTACTCGCAGACCGAACTAGAGCTT
Description: microscale thermophoresis. The note with it: 5 mM KCl, 1 mM MgCl2, 1 mM CaCl2 added; HBS-P+ buffer, 25 °C.

On to `COc1cccc2c1C(=O)c1c(O)c3c(c(O)c1C2=O)C[C@@](O)(C(C)=O)C[C@@H]3O[C@H]1C[C@H](N)[C@H](O)[C@H](C)O1`, for which the Kd in test [1] came out at 0.0219 ± 0.0026 µM; in [2], 0.2311 ± 0.0236 µM; in test [5] it was 0.00113 ± 0.00045 µM; in test [6], 0.0167 ± 0.006 µM; in test [7] it was 0.0129 ± 0.0015 µM; in test [8], 0.01285 ± 0.0016 µM. The Kd in test [9] turned out to be 0.00478 ± 0.00095 µM; in test [11], 0.0067 ± 0.001 µM; in test [12] it was 0.0126 ± 0.0035 µM. In addition, the “Kd ∆ side-chains” value in test [3] stood at 1.51 ± 0.065 µM; in [4] it was 4.50 ± 0.21 µM; in [10] it was 2.49 ± 0.12 µM; in [13] it was 1.70 ± 0.17 µM; in [14], 5.00 ± 0.14 µM.
